The numbers were not newly measured in patent US20160213705A1, “METHOD TO TREAT ONYCHOMYCOSIS BY HYDROXYPROPYL CHITOSAN” (POLICHEM S.A., priority 2013, published 2016), which cites them from elsewhere.

In data set [1] the test system is onychomycosis. The settings on record: topical; according to the different vehicles used.
In data set [2] the test system is onychomycosis. The conditions noted are these: oral route.

Molecules are shown by their SMILES. Values joined by “and” are separate entries in the source; they are usually repeats but may differ in a detail not shown here. Equal entries are not always repeated.

Turning to `Cc1cc(C2CCCCC2)n(O)c(=O)c1` [ciclopirox], the cure rate with onychomycosis [1] is 12.7% and 5.8%.

As for `CN(C/C=C/C#CC(C)(C)C)Cc1cccc2ccccc12` [terbinafine], the “complete cure, proportion of patients” value with onychomycosis [2] is given as 38%.
